{
  "source": "patent US20070082841A1",
  "about": "“Ocular administration of immunosuppressive agents” (Aciont, Inc., priority 2005, published 2007)",
  "experiment": "Ocular iontophoretic delivery of MPA in rabbits; amounts in eye tissues by HPLC",
  "assay_type": "in vivo, New Zealand white rabbits",
  "settings": "rabbit eye; iontophoresis 3 mA for 20 minutes, 20 μL of 0.6 M MPA in 1% agarose gel, 0.07 cm^2; 15 minutes after delivery",
  "method": "Three New Zealand white rabbits were each fitted with ocular iontophoretic device on one eye. Each device contained 20 μL of 0.6 M mycophenolic acid (MPA) in 1% agarose gel. A vacuum was provided between the eyes of the rabbits and the ocular iontophoretic device by withdrawing 0.2 cc from the space therebetween. MPA was iontophoretically delivered from the cathodes of the devices on the conjunctiva/sclera near the limbus and the upper eyelid using constant current control from standard iontophoretic dose controller. The MPA was iontophoretically delivered through a surface area of 0.07 cm^2 at 3 mA for 20 minutes. The anode electrode was attached on the rabbit's ear, opposite the treatment eye. Rabbits were euthanized at 15 minutes following completion of the iontophoretic delivery. Treatment eyes were dissected and the amounts of MPA in the conjunctiva, sclera, retina, and vitreous were determined using HPLC assay.",
  "data": [
    {"smiles": "COc1c(C)c2c(c(O)c1C/C=C(\\C)CCC(=O)O)C(=O)OC2", "note": "[MPA, mycophenolic acid]", "values": [
      {"measurement": "MPA Amount, Conjunctiva", "value": 30.45, "unit": "µg"},
      {"measurement": "MPA Amount, Retina", "value": 1.60, "unit": "µg"},
      {"measurement": "MPA Amount, Sclera", "value": 20.65, "unit": "µg"},
      {"measurement": "MPA Amount, Total (combined total for all of the dissections)", "value": 60.75, "unit": "µg"},
      {"measurement": "MPA Amount, Vitreous", "value": 2.45, "unit": "µg"}
    ]}
  ]
}
